According to ChEMBL document CHEMBL1132691, “Structure-immunosuppressive activity relationships of new analogues of 15-deoxyspergualin. 2. Structural modifications of the spermidine moiety” (1999):

Tests used:
Rattus norvegicus [1] = assay: The compound was tested in vivo against heart transplanted rat for survival (mean) after daily administration of 6 mg/kg(ip) for 10 days.; assay type: functional
Mus musculus [2] = assay: Tested in vivo against mouse graft-versus-host disease(GVHD) for survival (mean) after daily administration of 0.3 mg/kg (i.p.) using group of 8 mice/dose for 10 days.; assay type: functional; settings: route intraperitoneal
Mus musculus [3] = assay: Tested in vivo against mouse graft-versus-host disease(GVHD) for survival (mean) after daily administration of 3 mg/kg (i.p.) using group of 8 mice/dose for 10 days.; assay type: functional; settings: route intraperitoneal
Rattus norvegicus [4] = assay: The compound was tested in vivo against heart transplanted rat for survival (mean) after daily administration of 2.5 mg/kg(ip) for 10 days.; assay type: functional
Rattus norvegicus [5] = assay: The compound was tested in vivo against heart transplanted rat for survival (mean) after daily administration of 6 mg/kg(ip) for 10 days.

C[C@@H](N)CCNCCCCNC(=O)CC(=O)NCCCCCCN=C(N)N
Mean survival (Rattus norvegicus [1]): 68 days
Mean survival (Mus musculus [2]): 26 days
Mean survival (Mus musculus [3]): 49 days

CC(CCN)NCCCCNC(=O)CC(=O)NCCCCCCN=C(N)N (configuration not stated)
Mean survival (Mus musculus [2]): 11 days
Mean survival (Mus musculus [3]): 12 days

CC(N)CCNCCCCNC(=O)CC(=O)NCCCCCCN=C(N)N (configuration not stated)
Mean survival (Rattus norvegicus [1]): 24 days
Mean survival (Mus musculus [2]): 17 days
Mean survival (Mus musculus [3]): 60 days

C[C@H](N)CCNCCCCNC(=O)CC(=O)NCCCCCCN=C(N)N
Mean survival (Mus musculus [3]): 17 days

CC(N)CCNCCCCNC(=O)OCC(=O)NCCCCCCN=C(N)N (configuration not stated)
Mean survival (Rattus norvegicus [4]): 56 days
Mean survival (Mus musculus [2]): 53 days
Mean survival (Mus musculus [3]): 57 days

CC(CCCNC(=O)CC(=O)NCCCCCCN=C(N)N)NCCCN (configuration not stated)
Mean survival (Mus musculus [2]): 11 days
Mean survival (Mus musculus [3]): 14 days

C[C@@H](N)CCNCCCCNC(=O)OCC(=O)NCCCCCCNC(=N)N [ANISPERIMUS]
Mean survival (Rattus norvegicus [4]): 80 days
Mean survival (Mus musculus [2]): 60 days
Mean survival (Mus musculus [3]): 60 days

NCCCCNC(=O)OCC(=O)NCCCCCCN=C(N)N
Mean survival (Mus musculus [2]): 14 days
Mean survival (Mus musculus [3]): 14 days

NCCCNCCCCNC(=O)CC(=O)NCCCCCCN=C(N)N
Mean survival (Rattus norvegicus [1]): 9 days
Mean survival (Mus musculus [2]): 17 days
Mean survival (Mus musculus [3]): 52 days

CC(CN)CNCCCCNC(=O)CC(=O)NCCCCCCN=C(N)N (configuration not stated)
Mean survival (Mus musculus [2]): 18 days
Mean survival (Mus musculus [3]): 18 days

NC(N)=NCCCCCCNC(=O)COC(=O)NCCCCNCCC(N)C(F)(F)F (configuration not stated)
Mean survival (Mus musculus [2]): 16 days
Mean survival (Mus musculus [3]): 17 days

CC(CCCNCCCN)NC(=O)CC(=O)NCCCCCCN=C(N)N (configuration not stated)
Mean survival (Mus musculus [3]): 21 days

CCC(N)CCNCCCCNC(=O)OCC(=O)NCCCCCCN=C(N)N (configuration not stated)
Mean survival (Mus musculus [2]): 16 days
Mean survival (Mus musculus [3]): 21 days

N=C(N)NCCCCCCC(=O)NC(O)C(=O)NCCCCNCCCN (configuration not stated) [GUSPERIMUS]
Mean survival (Rattus norvegicus [5]): 38 days

NC(N)=NCCCCCCNC(=O)COC(=O)NCCCCNCCC(N)c1ccccc1 (configuration not stated)
Mean survival (Mus musculus [2]): 15 days
Mean survival (Mus musculus [3]): 15 days

C[C@H](N)CCNCCCCNC(=O)OCC(=O)NCCCCCCN=C(N)N
Mean survival (Rattus norvegicus [1]): 9 days
Mean survival (Mus musculus [2]): 16 days
Mean survival (Mus musculus [3]): 25 days

CN(CCCN)CCCCNC(=O)CC(=O)NCCCCCCN=C(N)N
Mean survival (Mus musculus [2]): 14 days
Mean survival (Mus musculus [3]): 14 days

N=C(N)NCCCCCCNC(=O)COC(=O)NCCCCNCCCN [TRESPERIMUS]
Mean survival (Rattus norvegicus [4]): 16 days
Mean survival (Mus musculus [2]): 15 days
Mean survival (Mus musculus [3]): 58 days

CC(C)(N)CCNCCCCNC(=O)CC(=O)NCCCCCCN=C(N)N
Mean survival (Mus musculus [2]): 15 days
Mean survival (Mus musculus [3]): 15 days
